{"source": "patent US20030008807A1", "about": "“Novel signaling pathway for the production of inflammatory pain and neuropathy” (The Regents of the University of California, priority 2001, published 2003)", "key": {"[1]": {"system": "mechanical nociceptive threshold", "test": "Epinephrine-induced mechanical hyperalgesia, Randall-Selitto paw-withdrawal test (Example 1)", "quoted_text": "(§4) The nociceptive flexion reflex (Randall-Selitto paw-withdrawal test) was quantified with a Basile Analge-symeter (Stoelting, Chicago, Ill.), which applies a linearly increasing mechanical force to the dorsum of the rat's hindpaw. The mechanical nociceptive threshold was defined as the force in grams at which the rat withdrew its paw. […] They were allowed to crawl into individual cylindrical Perspex blocks and were lightly restrained there by closing both ends of the cylinder. […] The rats were allowed to acclimatize to the restrainer for 5-10 min, after which the hindpaws were exposed to the test stimulus. Three readings were taken at 5 min intervals, and their mean was considered the baseline threshold. After each drug administration, mechanical paw-withdrawal thresholds were determined again as the mean of three readings taken 20, 25, and 30 min after injection.\nInhibitors were diluted with distilled water before intra-dermal injections into the paw using a 10 μl microsyringe (Hamilton, Reno, Nev.). Injections of peptides (1 μg/2.5 μl) were always preceded by injection of distilled water (2.5 μl) to produce hypo-osmotic shock. […] Paw-withdrawal thresholds were measured again 10, 15, and 20 min after injecting the test agent. The mean of the paw-withdrawal thresholds obtained at these three times was then taken as the mechanical nociceptive threshold at the dose of the test agent used. The effect of each dose a test agent was calculated as the percentage change from baseline."}, "[2]": {"system": "alcohol-induced hyperalgesia", "test": "Alcohol-induced painful peripheral neuropathy, Randall-Selitto paw-withdrawal test", "format": "in vivo, rat", "source_text": "(§1) The role of Ras-MEK-ERK 1/2 cascade in painful peripheral neuropathy has been evaluated in three rodent models of common clinical conditions in which patients experience painful peripheral neuropathy. The three models are as follows: 1) Taxol® (a major cancer chemotherapy agent)-induced painful peripheral neuropathy (Dina, O. A., et al., (2001) Role of protein kinase C-epsilon and protein kinase A in a model of paclitaxel-induced painful peripheral neuropathy in the rat. Neuroscience 108:507-515); 2) vincristine (another cancer chemotherapy agent)-induced painful peripheral neuropathy (Aley, K. O., et al., (1996) Vincristine hyperalgesia in the rat: a possible modelfor painful vincristine neuropathy in humans. Neuroscience 73:259-265; Tanner, K. D., et al., (1998) Nociceptor hyper-responsiveness during vincristine-induced painful peripheral neuropathy in the rat. J. Neuroscience 18:6480-6491; Tanner, K. D., et al., (1998) Microtubule disorientation and axonal swelling in unmyelinated sensory axons during vincristine-induced painful neuropathy in rat. J. Comp. Neurol., 395:481-492; and, Tanner, K. D., et al., (2002) Altered temporal patterning of afferent activity in a rat model of vincristine-induced peripheral neuropathy (Submitted -Neuroscience).); and, 3) alcohol-induced painful peripheral neuropathy (Dina, O. A., et al., (2000) Key role for the epsilon isoform of protein kinase C in painful alcoholic neuropathy in the rat. J. Neurosci. 20:8614-8619). In all three models, inhibition of MEK by a MEK inhibitor, PD98509, produced either a moderate (Taxol and vincristine) or profound (alcohol) reversal of the painful peripheral neuropathy. In the third model, alcohol-induced painful peripheral neuropathy, a second inhibitor of the Ras-MEK-ERK 1/2 cascade, which was MEK inhibitor U0126, was also employed.\nThe pain threshold in normal rats was approximately 110 grams, using the Randall-Selitto paw-withdrawal threshold test (plotted as percentage change in nociceptive threshold). Following chronic consumption of a diet in which alcohol replaced calories, but not other nutrients, in the normal diet, the threshold fell to approximately 70 grams. […] See FIG. 13A, which illustrates results from female rats and FIG. 13B, which illustrates results from male rats."}, "[3]": {"system": "Taxol-induced hyperalgesia", "test": "Taxol-induced painful peripheral neuropathy, Randall-Selitto paw-withdrawal test", "format": "in vivo, rat", "conditions": "male and female rats, administered at site of nociceptive testing on paw", "source_text": "as §1\nThe pain threshold in normal male and female rats was approximately 110 grams, using the Randall-Selitto paw-withdrawal test (plotted as absolute change in nociceptive threshold). Following administration of Taxol, the threshold fell to approximately 70 grams."}, "[4]": {"system": "mechanical nociceptive threshold", "test": "Epinephrine-induced hyperalgesia in gonad-intact and gonadectomized male and female rats (Example 2)", "conditions": "inhibitor 1 μg, epinephrine 100 ng intradermal", "procedure": "The nociceptive flexion reflex was quantified using the Randall-Selitto paw pressure device (Analgesymeter, Stoetling, Chicago, Ill., USA), which applies a linearly increasing mechanical force to the dorsum of the rat's hind paw. The mechanical nociceptive threshold was defined as the force in grams at which the rat withdrew its paw. […] Baseline paw-withdrawal threshold was defined as the mean of six readings before test agents were injected. […] Each group of rats was treated with only one agonist and/or antagonist injected peripherally by the intradermal route. […] All behavioural testing was done between 10.00 and 16.00 h. […] The protein kinase inhibitor was separated from the distilled water by drawing up a small air bubble (<1 μL) into the syringe after drawing up the protein kinase inhibitor but before drawing up the distilled water.\nA stock solution of PGE2 (4 mg/mL) was made by dissolving it in 10% ethanol in normal saline; further dilution to 100 ng was made by addition of saline. Final concentration of ethanol was <10%. […] Stock solutions (1 μg/μL) of inhibitors were stored at −20° C. […] Inhibitors were injected at a concentration of 1 μg/2.5 μL."}, "[5]": {"system": "vincristine-induced hyperalgesia", "test": "Vincristine-induced painful peripheral neuropathy, Randall-Selitto paw-withdrawal test", "format": "in vivo, rat", "conditions": "male and female rats, administered at site of nociceptive testing on paw", "source_text": "as §1\nThe pain threshold in normal male and female rats was approximately 110 grams, using the Randall-Selitto paw-withdrawal test (plotted as absolute change in nociceptive threshold). Following administration of vincristine, the threshold fell to approximately 65 grams."}, "[6]": {"system": "mechanical nociceptive threshold", "test": "PGE2-induced hyperalgesia, Randall-Selitto paw-withdrawal test (Example 1)", "format": "in vivo, rat", "conditions": "intradermal, inhibitor 1 μg plus PGE2 100 ng, male rats", "protocol": "(§2) The nociceptive flexion reflex (Randall-Selitto paw-withdrawal test) was quantified with a Basile Analge-symeter (Stoelting, Chicago, Ill.), which applies a linearly increasing mechanical force to the dorsum of the rat's hindpaw. The mechanical nociceptive threshold was defined as the force in grams at which the rat withdrew its paw. On the day of the test, animals were brought to the laboratory and allowed to remain in the cage for 10-15 min. They were allowed to crawl into individual cylindrical Perspex blocks and were lightly restrained there by closing both ends of the cylinder. […] Three readings were taken at 5 min intervals, and their mean was considered the baseline threshold. After each drug administration, mechanical paw-withdrawal thresholds were determined again as the mean of three readings taken 20, 25, and 30 min after injection. The result was expressed as the percentage decrease in nociceptive threshold [(paw-withdrawal threshold after the drug-basal paw withdrawal threshold)/basal withdrawal threshold×100].\n(§3) Stock solutions (1 μg/μl) of BIM (in 10% dimethylsulfoxide) and εV1-2 and WI PTI DE (in 0.9% saline) were stored at […]. […] Paw-withdrawal thresholds were measured again 10, 15, and 20 min after injecting the test agent. […] The effect of each dose a test agent was calculated as the percentage change from baseline."}, "[7]": {"system": "mechanical nociceptive threshold", "test": "ψεRACK (PKCε activator)-induced hyperalgesia, Randall-Selitto paw-withdrawal test", "format": "in vivo, rat", "conditions": "intradermal, inhibitor 1 μg plus ψεRACK 1 μg, male rats", "protocol": "as §2, §3"}, "ERK1/2": {"system": "ERK1/2", "test": "Epinephrine-stimulated ERK1/2 phosphorylation in cultured rat DRG neurons (Western analysis)", "format": "cell-based", "procedure": "Trypsin was inactivated by adding 100 μg/ml soybean trypsin inhibitor and 2.5 mg/ml MgSO4. The cells were centrifuged at 300×g for 5 min and resuspended culture media containing minimal essential medium (MEM) supplemented with 10% heat-inactivated fetal calf serum, 1×MEM vitamins, and 1000 U/ml each of penicillin and streptomycin. The culture was enriched for neurons by preplating on 100 mm culture dishes pretreated with 0.1 mg/ml poly-DL-ornithine in 15 mM sodium borate buffer. After culture for 15-20 hr, the loosely attached neuronal cells were collected and plated for 3 hr on six-well plates coated with 0.1 mg/ml poly-DL-ornithine and 1 mg/ml laminin.\nAfter drug treatment, cells from neuron-enriched DRG cultures were collected and centrifuged at 300×g for 5 min at 4° C. […] Blots were incubated with anti-phospho-p42/44 MAP kinase antibody (diluted 1:500 in blocking buffer) overnight at 4° C. Blots were rinsed three times in PBS-T and incubated in blocking buffer containing HRP-conjugated goat anti-rabbit IgG (diluted 1:1000; Boehringer Mannheim, Indianapolis, Ind.) for 1 hr at 27° C. Immunoreactive bands were visualized by enhanced chemiluminescence (Amersham Pharmacia Biotech, Piscataway, N.J.). The membranes were then stripped of antibodies by incubation in 200 mM NaOH for 20 min at 27° C. […] After three washes in PBS-T, blots were incubated with HRP-conjugated goat anti-rabbit IgG (diluted 1:1000; Boehringer Mannheim) for 1 hr at 27° C., and immunoreactive bands were visualized by enhanced chemiluminescence and autoradiography. […] Data were normalized by dividing values obtained for phospho-ERK1 and phospho-ERK2 immunoreactivity by the value obtained for total ERK1 immunoreactivity for each sample."}, "[8]": {"system": "mechanical nociceptive threshold", "test": "Prostaglandin E2-induced hyperalgesia in male and female rats (Example 2)", "format": "in vivo, rat", "conditions": "both sexes, gonad-intact; inhibitor 1 μg, PGE2 100 ng intradermal", "source_text": "The nociceptive flexion reflex was quantified using the Randall-Selitto paw pressure device (Analgesymeter, Stoetling, Chicago, Ill., USA), which applies a linearly increasing mechanical force to the dorsum of the rat's hind paw. The mechanical nociceptive threshold was defined as the force in grams at which the rat withdrew its paw. The protocols for this procedure have been previously described (Taiwo et al., (1989) The contribution of training to sensitivity in the nociceptive paw-withdrawal test. Brain Res., 487:148-151). Rats were familiarized in the testing procedure, at 5-min intervals for a period of 1 h per day for 3 days in the week preceding the experiment, to decrease variance in nociceptive thresholds (Taiwo et al., (1989), supra). Baseline paw-withdrawal threshold was defined as the mean of six readings before test agents were injected. Each paw was treated as an independent measure (Taiwo et al., (1989), supra) and each experiment was performed on a separate group of rats. Each group of rats was treated with only one agonist and/or antagonist injected peripherally by the intradermal route. It has been shown in previous studies that these agents, which are injected using the protocol described, exert a peripheral rather than central action (Khasar et al., (1995), supra; and, Khasar et al., (1999b), supra). The dose-response relationship for the effect of epinephrine was determined over a dose range of 1 ng-1 μg. All behavioural testing was done between 10.00 and 16.00 h. The blocking agents, with and without epinephrine (Khasar et al., (1999b), supra) or prostaglandin E2 (PGE2) (Aley et al., (1998), supra; Aley & Levine, (1999), supra; and, Aley et al., (2000) Chronic hypersensitivity for inflammatory nociceptor sensitization mediated by the epsilon isozyme of protein kinase C. J. Neurosci., 20:4680-4685), were injected as described previously (Khasar et al., (1995), supra; and, Khasar et al., (1999b), supra). […]"}, "[9]": {"system": "mechanical nociceptive threshold", "test": "Active MEK-induced hyperalgesia, Randall-Selitto paw-withdrawal test", "conditions": "intradermal, inhibitor 1 μg plus active MEK 0.5 U, male rats", "quoted_text": "as §4\nInhibitors were diluted with distilled water before intra-dermal injections into the paw using a 10 μl microsyringe (Hamilton, Reno, Nev.). Injections of peptides (1 μg/2.5 μl) were always preceded by injection of distilled water (2.5 μl) to produce hypo-osmotic shock. […] Paw-withdrawal thresholds were measured again 10, 15, and 20 min after injecting the test agent. […] The effect of each dose a test agent was calculated as the percentage change from baseline."}, "[10]": {"conditions": "male and female rats, administered at site of nociceptive testing on paw"}}, "note": "Entries after “also recorded” stand apart in the source; their conditions may differ."}
{"compound": "COc1cccc(-c2cc(=O)c3ccccc3o2)c1N", "note": "[PD98059]", "values": [{"measurement": "effect on epinephrine-induced mechanical hyperalgesia", "setting": "[1]; intradermal, inhibitor 1 μg plus epinephrine 100 ng, male rats", "value": "inhibited"}, {"measurement": "effect on alcohol-induced hyperalgesia", "setting": "[2]; female rats (FIG. 13A)", "value": "almost completely reversed"}, {"measurement": "effect on alcohol-induced hyperalgesia", "setting": "[2]; [10]", "value": "almost complete reversal"}, {"measurement": "effect on alcohol-induced hyperalgesia", "setting": "[2]; male and female rats, administered at site of nociceptive testing on paw, listed as PD98509", "value": "profound"}, {"measurement": "effect on alcohol-induced hyperalgesia", "setting": "[2]; male rats (FIG. 13B)", "value": "almost completely reversed"}, {"measurement": "effect on Taxol-induced hyperalgesia", "setting": "[3]", "value": "two-thirds reduction; also recorded: significantly reversed"}, {"measurement": "effect on Taxol-induced hyperalgesia", "setting": "[3]; listed as PD98509", "value": "moderate"}, {"measurement": "effect on epinephrine-induced hyperalgesia", "setting": "[4]; intact female rats", "value": "attenuated"}, {"measurement": "effect on vincristine-induced hyperalgesia", "setting": "[5]", "value": "more than two-thirds reduction; also recorded: reversed"}, {"measurement": "effect on vincristine-induced hyperalgesia", "setting": "[5]; listed as PD98509", "value": "moderate"}, {"measurement": "effect on vincristine-induced hyperalgesia", "setting": "[5]; listed as PD980598", "value": "significantly reversed"}, {"measurement": "effect on hyperalgesia induced by PGE2", "setting": "[6]", "value": "had no effect"}, {"measurement": "effect on hyperalgesia induced by ψεRACK", "setting": "[7]", "value": "had no effect"}]}
{"compound": "N#CC(=C(/N)Sc1ccccc1N)/C(C#N)=C(\\N)Sc1ccccc1N", "note": "[U0126]", "values": [{"measurement": "effect on epinephrine-induced mechanical hyperalgesia", "setting": "[1]; rat, in vivo", "value": "inhibited"}, {"measurement": "effect on alcohol-induced hyperalgesia", "setting": "[2]; female rats (FIG. 13A)", "value": "almost completely reversed"}, {"measurement": "effect on alcohol-induced hyperalgesia", "setting": "[2]; [10]", "value": "almost complete reversal"}, {"measurement": "effect on alcohol-induced hyperalgesia", "setting": "[2]; male rats (FIG. 13B)", "value": "almost completely reversed"}, {"measurement": "effect on epinephrine-induced ERK phosphorylation", "setting": "ERK1/2", "value": "inhibited"}, {"measurement": "effect on epinephrine-induced hyperalgesia", "setting": "[4]; intact female rats", "value": "attenuated"}, {"measurement": "effect on hyperalgesia induced by PGE2", "setting": "[6]", "value": "had no effect"}, {"measurement": "effect on hyperalgesia induced by ψεRACK", "setting": "[7]", "value": "had no effect"}]}
{"compound": "WIPTIDE", "values": [{"measurement": "effect on prostaglandin E2-induced hyperalgesia", "setting": "[8]", "value": "significantly blocked; also recorded: inhibited to a similar degree"}, {"measurement": "effect on hyperalgesia induced by active MEK", "setting": "[9]", "value": "did not reduce"}, {"measurement": "effect on epinephrine-induced hyperalgesia", "setting": "[4]; gonadectomized female rats", "value": "inhibition"}, {"measurement": "effect on epinephrine-induced hyperalgesia", "setting": "[4]; intact female rats", "value": "neither inhibited"}, {"measurement": "effect on epinephrine-induced hyperalgesia", "setting": "[4]; intact male rats", "value": "antagonized"}]}
